Data reported in patent US20100216699A1, “SEMI-SYNTHETIC GLYCOPEPTIDES HAVING ANTIBACTERIAL ACTIVITY” (LEAD THERAPEUTICS, INC., priority 2009, published 2010).
In brackets after ≈: the same amount, converted by molar mass. Where two headings read alike, the source gives them in different places. Values belong to the molecule of their own block, whether it stands above or below them.

How the values were obtained:
Type in all cases: cell-based
[1] = tested on: Staphylococcus aureus 2012 (VISA); experiment: MIC by broth microdilution, SA 2012; details: read-out: MIC SA 2012
Excerpt: (§1) As used herein, the term “minimum inhibitory concentration” (MIC) refers to the lowest concentration of an antibiotic that is needed to inhibit growth of a bacterial isolate in vitro. A common method for determining the MIC of an antibiotic is to prepare several tubes containing serial dilutions of the antibiotic, that are then inoculated with the bacterial isolate of interest.
(§2) Antibacterial activity in vitro is investigated by broth microdilution method in Meuller-Hinton broth as recommended by NCCLS. All strains tested are clinical isolates either sensitive or resistant to natural glycopeptides. MIC values were determined using the CLSI-recommended broth microdilution procedure (Clinical and Laboratoratory Standards Institute, Methods for Dilution Antimicrobial Susceptibility Tests for Bacteria That Grow Aerobically; Approved Standard-Seventh Edition.). Automated liquid handlers (Multidrop 384, Labsystems, Helsinki, Finland; Biomek 2000 and Multimek 96, Beckman Coulter, Fullerton Calif.) were used to conduct serial dilutions and liquid transfers.

[2] = tested on: Enterococcus faecium 752 (VRE); experiment: MIC by broth microdilution, EFCM 752; details: read-out: MIC EFCM 752
Excerpt: as §1, §2

[3] = tested on: Staphylococcus aureus 757 (MRSA); experiment: MIC by broth microdilution, SA 757; details: read-out: MIC SA 757
Excerpt: as §1, §2

[4] = tested on: Enterococcus faecium 750 (vancomycin sensitive); experiment: MIC by broth microdilution, EFCM 750; details: read-out: MIC EFCM 750
Excerpt: as §1, §2

[5] = tested on: Enterococcus faecalis 848 (VRE); experiment: MIC by broth microdilution, EFC 848; details: read-out: MIC EFC 848
Excerpt: as §1, §2

[6] = tested on: Staphylococcus epidermidis 835 (MSSE); experiment: MIC by broth microdilution, SE 835; details: read-out: MIC SE 835
Excerpt: as §1, §2

[7] = tested on: Streptococcus pneumoniae 1195 (penicillin sensitive); experiment: MIC by broth microdilution, SPNE 1195; details: read-out: MIC SPNE 1195
Excerpt: as §1, §2

[8] = tested on: Staphylococcus aureus 100 (MSSA); experiment: MIC by broth microdilution, SA 100; details: read-out: MIC SA 100
Excerpt: as §1, §2

[9] = tested on: Streptococcus pyogenes 712 (penicillin sensitive); experiment: MIC by broth microdilution, SPYO 712; details: read-out: MIC SPYO 712
Excerpt: as §1, §2

[10] = tested on: Staphylococcus epidermidis 831 (MRSE); experiment: MIC by broth microdilution, SE 831; details: read-out: MIC SE 831
Excerpt: as §1, §2

[11] = tested on: Enterococcus faecalis 101 (vancomycin sensitive); experiment: MIC by broth microdilution, EFC 101; details: read-out: MIC EFC 101
Excerpt: as §1, §2

- MIC ([1]; Staphylococcus aureus 2012 (VISA), clinical isolate, Mueller-Hinton broth): 2 µg/mL (≈ 1.4 µM)
- MIC ([2]; Enterococcus faecium 752 (VRE), clinical isolate, Mueller-Hinton broth): 2 µg/mL (≈ 1.4 µM)
- MIC ([3]; Staphylococcus aureus 757 (MRSA), clinical isolate, Mueller-Hinton broth): 2 µg/mL (≈ 1.4 µM)
- MIC ([4]; Enterococcus faecium 750 (vancomycin sensitive), clinical isolate, Mueller-Hinton broth): 1 µg/mL (≈ 0.698 µM)
- MIC ([5]; Enterococcus faecalis 848 (VRE), clinical isolate, Mueller-Hinton broth): 2 µg/mL (≈ 1.4 µM)
- MIC ([6]; Staphylococcus epidermidis 835 (MSSE), clinical isolate, Mueller-Hinton broth): 2 µg/mL (≈ 1.4 µM)
- MIC ([7]; Streptococcus pneumoniae 1195 (penicillin sensitive), clinical isolate, Mueller-Hinton broth): 0.5 µg/mL (≈ 0.349 µM)
- MIC ([8]; Staphylococcus aureus 100 (MSSA), clinical isolate, Mueller-Hinton broth): 2 µg/mL (≈ 1.4 µM)
- MIC ([9]; Streptococcus pyogenes 712 (penicillin sensitive), clinical isolate, Mueller-Hinton broth): 0.25 µg/mL (≈ 0.175 µM)
- MIC ([10]; Staphylococcus epidermidis 831 (MRSE), clinical isolate, Mueller-Hinton broth): 1 µg/mL (≈ 0.698 µM)
- MIC ([11]; Enterococcus faecalis 101 (vancomycin sensitive), clinical isolate, Mueller-Hinton broth): 2 µg/mL (≈ 1.4 µM)
Compound: CCCCCCCCNC(=O)NC(=O)C[C@@H]1NC(=O)[C@H](NC(=O)[C@@H](CC(C)C)NC)[C@H](O)c2ccc(c(Cl)c2)Oc2cc3cc(c2O)Oc2ccc(cc2Cl)[C@@H](O)[C@H]2NC(=O)[C@H](NC(=O)[C@@H]3NC1=O)c1ccc(O)c(c1)-c1c(O)cc(O)cc1[C@@H](C(=O)NC1C3CC4CC(C3)CC1C4)NC2=O (stereo partly shown) [Compound 23]

Compound: CN[C@H](CC(C)C)C(=O)N[C@H]1C(=O)N[C@@H](CC(N)=O)C(=O)N[C@H]2C(=O)N[C@H]3C(=O)N[C@H](C(=O)N[C@H](C(=O)O)c4cc(O)cc(O)c4-c4cc3ccc4O)[C@H](O)c3ccc(c(Cl)c3)Oc3cc2cc(c3O[C@@H]2O[C@H](CO)[C@@H](O)[C@H](O)[C@H]2O[C@H]2C[C@](C)(N)[C@H](O)[C@H](C)O2)Oc2ccc(cc2Cl)[C@H]1O [Vancomycin, vancomycin]
- MIC ([1]; Staphylococcus aureus, VISA): 8 µg/mL (≈ 5.52 µM)
- MIC ([2]; Enterococcus faecium, VRE): > 64 µg/mL
- MIC ([3]; Staphylococcus aureus, MRSA): 1 µg/mL (≈ 0.69 µM)
- MIC ([4]; Enterococcus faecium): 1 µg/mL (≈ 0.69 µM)
- MIC ([5]; Enterococcus faecalis, VRE): > 64 µg/mL
- MIC ([6]; Staphylococcus epidermidis): 2 µg/mL (≈ 1.38 µM)
- MIC ([7]; Streptococcus pneumoniae): 0.25 µg/mL (≈ 0.173 µM)
- MIC ([8]; Staphylococcus aureus, MSSA): 1 µg/mL (≈ 0.69 µM)
- MIC ([9]; Streptococcus pyogenes): 0.5 µg/mL (≈ 0.345 µM)
- MIC ([10]; Staphylococcus epidermidis, MRSE): 2 µg/mL (≈ 1.38 µM)
- MIC ([11]; Enterococcus faecalis): 2 µg/mL (≈ 1.38 µM)
